Activity calls are given as the source filed them. The rule behind the calls is not given here.
Key:
SW480 = experiment: Induction of cellular DNA damage PARylation in human SW480 cells at >100 uM by Western blot analysis; type: functional, cell-based
[1] = Aqueous solubility of the compound in phosphate buffer at pH 7.4; type: physicochemical
[2] = Intrinsic clearance in human liver microsomes assessed per mg of protein; type: ADME; settings: read-out: CLH
[3] = Intrinsic clearance in mouse liver microsomes assessed per mg of protein; type: ADME; settings: read-out: CLH

Cc1cccc2c(=O)[nH]c(-c3ccc(CN4CCC(N(C)C)CC4)cc3)cc12
Activity (SW480): Active | solubility [1]: > 100 µM | microsomal CLint [2]: 5 µL/min/mg | microsomal CLint [3]: 10 µL/min/mg

COc1cccc2c(=O)[nH]c(-c3ccc(CN(C)C)cc3)cc12
solubility [1]: > 100 µM

CN(C)Cc1ccc(-c2cc3ccccc3c(=O)[nH]2)cc1
solubility [1]: > 100 µM

Source: ChEMBL document CHEMBL3763048, “Design and discovery of 3-aryl-5-substituted-isoquinolin-1-ones as potent tankyrase inhibitors” (Medchemcomm, 2015)
